Laboratory results as given in patent US20260263448A1, “CONTROLLED RELEASE INJECTABLE CARIPRAZINE FORMULATION” (Richter Gedeon Nyrt., priority 2021, published 2026).
Values after ≈ are worked out from the molar mass of the structure shown. Structures can show the parent of a compound that is named as a salt. Where two headings read alike, the source gives them in different places.

Assay: Solubility at different pH values (37° C.)
Type: physicochemical
Conditions: for solubility: aqueous buffer, read-out: Solubility (average, mg/ml); for Solubility in the pH-range of human muscle and subcutaneous tissues: pH 6.8-7.5

Compound	solubility (pH = 3, 37° C.) [mg/mL]	solubility (pH = 4.4, 37° C.) [mg/mL]	solubility (pH = 6.8, 37° C.) [mg/mL]	Solubility in the pH-range of human muscle and subcutaneous tissues	Solubility category (USP) (pH = 3, 37° C.)	Solubility category (USP) (pH = 4.4, 37° C.)	Solubility category (USP) (pH = 6.8, 37° C.)	Solubility (average, mg/ml) (pH = 7.4, 37° C.)	Solubility category (USP) (pH = 7.4, 37° C.)	solubility (pH = 4.5, 37° C.) [mg/mL]	solubility (pH = 5.5, 37° C.) [mg/mL]	solubility (pH = 7.5, 37° C.) [mg/mL]	Solubility category (USP) (pH = 4.5, 37° C.)	Solubility category (USP) (pH = 5.5, 37° C.)	Solubility (average, mg/ml) (pH = 6.8, 37° C.) [mg/mL]	Solubility category (USP) (pH = 7.5, 37° C.)
CN(C)C(=O)N[C@H]1CC[C@H](CCN2CCN(c3cccc(Cl)c3Cl)CC2)CC1 [Cariprazine base, trans-N-{4-[2-[4-(2,3-dichlorophenyl)-piperazin-1-yl]-ethyl]-cyclohexyl}-N′,N′-dimethylurea]	0.204 (≈ 477 µM)	0.357 (≈ 835 µM)	0.0007 (≈ 1.64 µM)	practically insoluble	Very slightly soluble	Very slightly soluble	Practically insoluble	not detectable	Practically insoluble							
CN(C)C(=O)N[C@H]1CC[C@H](CCN2CCN(c3cccc(Cl)c3Cl)CC2)CC1 [Cariprazine hydrochloride]	6			practically insoluble	Slightly soluble		Practically insoluble			13.8	0.27	0.001	Sparingly soluble	Very slightly soluble	0.005	Practically insoluble
